Assay results as given in paper PMC6116705, “Design, synthesis, in vitro antiproliferative activity and apoptosis-inducing studies of 1-(3′,4′,5′-trimethoxyphenyl)-3-(2′-alkoxycarbonylindolyl)-2-propen-1-one derivatives obtained by a molecular hybridisation approach” (Journal of Enzyme Inhibition and Medicinal Chemistry, 2018).
Like-named read-outs stand apart in the source and are kept apart here.

What was measured:
[1] = system: human colon adenocarcinoma (HT29) cells; assay: Antiproliferative assay, cell counting (Coulter Counter), HT29; format: cell-based; settings: for fold more potent than CA-4: HT29 cell line, ratio of IC50 values
Experimental: (§1) Human cervix carcinoma (HeLa), human colon carcinoma (HT29), human breast carcinoma (MCF-7) and human lymphoma (HL-60) cells (3–5 × 10^4 cells) and a serial (five-fold) dilution of the test compounds were added to a 96-well microtiter plate. The cells were incubated for 72–96 h (depending on the tumor cell line) at 37 °C in a humidified 5% CO2 atmosphere. At the end of the incubation period, the cells were counted in a Coulter Counter (Coulter Electronics Ltd, Harpenden Herts, UK). […] The IC50 values represent the average (±standard deviation) of at least two to four independent experiments.

[2] = system: human promyelocytic leukemia (HL-60) cells; assay: Antiproliferative assay, cell counting (Coulter Counter), HL-60; format: cell-based; settings: Homo sapiens; HL-60, 72–96 h; read-out: IC50, inhibition of proliferation
Experimental: as §1

[3] = system: bovine brain tubulin; assay: Inhibition of tubulin polymerisation (turbidimetric tubulin assembly); format: biochemical; settings: for IC50: tubulin 10 µM, 20 min at 30 °C, read-out: Tubulin assembly IC50±SD
Experimental: (§2) To evaluate the effect of the compounds on tubulin assembly in vitro[40], varying concentrations of compounds were preincubated with 10 μM bovine brain tubulin in 0.8M monosodium glutamate (pH adjusted to 6.6 with HCl in a 2.0M stock solution) at 30 °C and then cooled to 0 °C. After addition of 0.4 mM GTP, the mixtures were transferred to 0 °C cuvettes in a recording spectrophotometer and warmed to 30 °C. Tubulin assembly was followed turbidimetrically at 350 nm. […] The capacity of the test compounds to inhibit colchicine binding to tubulin was measured as described. The reaction mixtures contained 1 μM tubulin, 5 μM [^3H]colchicine and 5 μM test compound.

[4] = system: tubulin (colchicine site); assay: Inhibition of [3H]colchicine binding to tubulin; parameters: species or system bovine; settings: tubulin 1 µM, [3H]colchicine 5 µM, compound 5 µM
Experimental: as §2

[5] = system: human cervix carcinoma (HeLa) cells; assay: Antiproliferative assay, cell counting (Coulter Counter), HeLa; format: cell-based; settings: 72–96 h, read-out: IC50, inhibition of proliferation
Experimental: as §1

[6] = system: human breast adenocarcinoma (MCF-7) cells; assay: Antiproliferative assay, cell counting (Coulter Counter), MCF-7; format: cell-based; settings: for fold more potent than CA-4: MCF-7 cells, ratio of IC50 values
Experimental: as §1

Structure (SMILES): CCOC(=O)c1[nH]c2ccc(OC)cc2c1/C=C/C(=O)c1cc(OC)c(OC)c(OC)c1 [Compound 9d, (E)-Ethyl 5-methoxy-3-(3-oxo-3-(3,4,5-trimethoxyphenyl)prop-1-en-1-yl)-1H-indole-2-carboxylate]
- fold more potent than CA-4 [1]: 8–24 fold
- IC50 [2]: 3.4 ± 1 µM
- IC50 [3]: > 20 µM
- Colchicine binding % ±SD (inhibition) [4]: 9.6 ± 2%

Structure (SMILES): COC(=O)c1[nH]c2cc(OC)ccc2c1/C=C/C(=O)c1cc(OC)c(OC)c(OC)c1 [Compound 9e, (E)-Methyl 6-methoxy-3-(3-oxo-3-(3,4,5-trimethoxyphenyl)prop-1-en-1-yl)-1H-indole-2-carboxylate]
- IC50 ([5]; Homo sapiens): 0.37 ± 0.18 µM
- fold more potent than CA-4 [1]: 8–24 fold
- IC50 ([1]; Homo sapiens, HT-29, HT29, 72–96 h, read-out: IC50, inhibition of proliferation): 0.16 ± 0.02 µM
- IC50 ([6]; Homo sapiens, MCF7, MCF-7, 72–96 h, read-out: IC50, inhibition of proliferation): 0.17 ± 0.03 µM
- fold more potent than CA-4 [6]: 1.5–2 fold
- IC50 [2]: 18 ± 14 µM
- fold less potent than CA-4 as inhibitor of tubulin polymerisation ([3]; ratio of tubulin assembly IC50 values): 10 fold
- IC50 [3]: 6.2 ± 0.6 µM
- Colchicine binding % ±SD (inhibition) [4]: 29 ± 5%

Structure (SMILES): CCOC(=O)c1[nH]c2cc(OC)ccc2c1/C=C/C(=O)c1cc(OC)c(OC)c(OC)c1 [Compound 9f, (E)-Ethyl 6-methoxy-3-(3-oxo-3-(3,4,5-trimethoxyphenyl)prop-1-en-1-yl)-1H-indole-2-carboxylate]
- IC50 [5]: 0.84 ± 0.39 µM
- IC50 ([5]; Homo sapiens): < 1 µM
- fold more potent than CA-4 [1]: 8–24 fold
- fold more potent than CA-4 [6]: 1.5–2 fold
- IC50 [2]: 5.2 ± 2.2 µM
- IC50 [3]: 17 ± 2 µM
- Colchicine binding % ±SD (inhibition) [4]: 23 ± 1%
